The results in this text go back to patent US20260015364A1, “PIPERAZINE BRIDGE-SUBSTITUTED HETEROCYCLIC PYRIMIDINE COMPOUND” (MEDSHINE DISCOVERY INC., priority 2022, published 2026).

Each structure is given as a SMILES string.

The subject of experiment [1] is GP2D human colon cancer cells with KRAS^G12D mutation. Nature of the experiment: GP2D 3D CTG experiment (anti-proliferation). In kind it is cell-based. The following applies: 120 h, 5 days incubation. The text has this:
This experiment aims to verify the inhibitory effect of the compounds of the present disclosure on the proliferation of GP2D human colon cancer cells with KRAS^G12D mutation.
Cell line GP2D and DMEM medium were purchased from GIBCO, FBS was purchased from Hyclone, and L-glutamine was purchased from Invitrogen. The 96-well plate was purchased from Ultra Low Cluster. CellTiter-Glo® 3D Cell Viability Assay reagents (chemiluminescent 3D cell viability assay reagents) were purchased from Promega, and 2104 En Vision plate reader was purchased from PerkinElmer.
(§1) GP2D cells were cultured in an incubator at 37° C. with 5% CO2 under the conditions of DMEM+10% FBS+2 mM L-glutamine. Regular passaging was performed, and cells in the logarithmic growth phase were selected for plating. GP2D cells were seeded in a 96-well U-bottom cell culture plate, and each well of 135 μL cell suspension contained 6000 GP2D cells. The culture plate was cultured overnight in a 37° C., 5% CO2 incubator with 100% relative humidity. The test compound was diluted 5-fold to the eighth concentration using a pipette, ranging from 200 μM to 2.56 nM, and tested in duplicate. 78 μL of culture medium per well was added to an intermediate plate. […] A multimode microplate reader was used for reading. […]

Experiment [2] concerns PANC04.03 human pancreatic cancer cells with KRAS^G12D mutation. In words: PANC04.03 3D CTG experiment (anti-proliferation). In kind it is cell-based. As to conditions: Panc 04.03, 168 h, 7 days incubation.
Excerpt: This experiment aims to verify the inhibitory effect of the compounds of the present disclosure on the proliferation of PANC04.03 human pancreatic cancer cells with KRAS^G12D mutation.
Cell line PANC04.03 and RPMI-1640 medium were purchased from GIBCO, FBS was purchased from Hyclone, and human insulin was purchased from Yeasen. The 96-well plate was purchased from Ultra Low Cluster, CellTiter-Glo® 3D Cell Viability Assay reagents (chemiluminescent 3D cell viability assay reagents) were purchased from Promega, and 2104 En Vision plate reader was purchased from PerkinElmer.
as §1, with “PANC04.03” for “GP2D”, “RPMI-1640+15% FBS+5 µg/mL human insulin.” for “DMEM+10% FBS+2 mM L-glutamine.”, “2000 PANC04.03” for “6000 GP2D”

The subject of experiment [3] is PANC04.03 cell subcutaneously transplanted tumors. Nature of the experiment: In vivo pharmacodynamic experiment of PANC04.03 tumor model. The following applies: p.o., BID, 28 days of administration. More on the design: species or system Balb/c Nude mice. How it is done: In vivo pharmacodynamics of PANC04.03 cell subcutaneously transplanted tumors in Balb/c Nude mice model with human pancreatic cancer
Cell culture: Human pancreatic cancer PANC04.03 cells were cultured in monolayer in vitro. The culture conditions were RPMI-1640+15% FBS+10 units/mL insulin, and cultured in a 37° C., 5% carbon dioxide incubator. Routine digestion with trypsin-EDTA was performed twice a week for passaging. When the cell saturation reached 80% to 90% and the required quantity was reached, the cells were harvested, counted, and resuspended in an appropriate amount of PBS to obtain a cell suspension with a cell density of 25×10^6 cells/mL.
Cell inoculation: 0.2 mL (5×10^6 cells/mouse) of PANC04.03 cells were subcutaneously inoculated into the right back of each mouse.
Experimental operation: When the average tumor volume reached 190 mm^3, the mice were randomly divided into groups according to the tumor volume, with 6 animals in each group. The blank group was administered with a dose of 0, and the test group was orally administered with a dose of 30 mg/kg, 100 mg/kg, 150 mg/kg, and a volume of 10 μL/g, respectively, and was administered twice a day for 28 days.
Tumor diameters were measured twice a week with a vernier caliper. The formula for calculating tumor volume is: V=0.5a×b^2, wherein a and b represent the long and short diameters of the tumor, respectively.
The tumor inhibitory efficacy of the compound was evaluated by TGI (%) or relative tumor proliferation rate T/C (%). Relative tumor proliferation rate T/C (%)=TRTV/CRTV×100% (TRTV:RTV of treatment group; CRTV:RTV of negative control group). The relative tumor volume (RTV) was calculated based on the results of tumor measurements. The calculation formula is RTV=Vt/V0, where V0 is the average tumor volume measured at the beginning of administration in groups (i.e., D0), and Vt is the average tumor volume measured at a certain measurement. TRTV and CRTV used the data from the same day.
TGI (%) reflected the tumor growth inhibition rate. […]

`C#Cc1c(F)ccc2cc(N)cc(-c3ncc4c(N5CC6CCC(C5)N6)nc(OC[C@@]56CC(=C)CN5C[C@@H]5C[C@@H]56)nc4c3F)c12` (single isomer, unassigned) [Compound 3]: the IC50 in experiment [1] was found to be 0.00054 µM; in experiment [2] it was 0.0342 µM. The TGI in experiment [3] (30 mpk) stood at 95.41%; in experiment [3] (100 mpk) it was 108.41%; in experiment [3] (150 mpk), 115.80%.

Broadly, the IC50 is the point on the concentration scale where inhibition reaches its midpoint. A high value points to a need for much substance.
